According to paper PMC6433232, “Targeting mitochondria in cancer therapy could provide a basis for the selective anti-cancer activity” (PLoS ONE, 2019):

Tested on: primary acute myeloid leukemia (AML) cells obtained from patients
Test: Kinase inhibitor library screening with and without NSC130362, primary AML cells
Assay type: cell-based, Human
Conditions: ratio of EC50 for inhibitor to EC50 for inhibitor/NSC130362 combination, NSC130362 10 μM

Row | Structure (SMILES) | EC50 decrease, fold (Screen N 1) [fold] | EC50 decrease, fold (Screen N 2) [fold] | EC50 decrease, fold (Screen N 3) [fold]
1 | Cn1c(Nc2ccc(C(F)(F)F)cc2)nc2cc(Oc3ccnc(-c4ncc(C(F)(F)F)[nH]4)c3)ccc21 [RAF265 (CHIR-265)] | 2.6 | 0.8 | 0.0556
2 | CO[C@H]1C[C@@H]2CC[C@@H](C)[C@@](O)(O2)C(=O)C(=O)N2CCCC[C@H]2C(=O)O[C@H]([C@H](C)C[C@@H]2CC[C@@H](O)[C@H](OC)C2)CC(=O)[C@H](C)/C=C(\C)[C@@H](O)[C@@H](OC)C(=O)[C@H](C)C[C@H](C)/C=C/C=C/C=C/1C [Rapamycin] | – | 1.0 | –
3 | CNC(=O)c1cc(Oc2ccc(NC(=O)Nc3ccc(Cl)c(C(F)(F)F)c3)c(F)c2)ccn1 [Regorafenib (BAY 73-4506)] | 1.0 | 1.2 | 0.0284
4 | N#CC[C@H](C1CCCC1)n1cc(-c2ncnc3[nH]ccc23)cn1 [Ruxolitinib (INCB018424)] | – | 1.0 | –
5 | NC(=O)c1ccc(-c2nc(-c3ccc4c(c3)OCO4)c(-c3ccccn3)[nH]2)cc1 [SB-431542] | 1.0 | 1.0 | 1058.2
6 | O=C(Nc1ccc2[nH]nc(-c3ccncc3)c2c1)[C@@H]1CCN(CC(=O)N2CCN(c3ccc(-c4ncccn4)cc3)CC2)C1 [SCH-772984] | – | 0.8 | –
7 | Cn1cc(-c2ccc3nnc(Sc4ccc5ncccc5c4)n3n2)cn1 [SGX-523] | 1.6 | 1.0 | 66.4
8 | CC(C)(C)c1cnc(CSc2cnc(NC(=O)C3CCNCC3)s2)o1 [SNS-032 (BMS-387032)] | 6.0 | 0.9 | 14.0
9 | CCCCCNC(=O)N1CCC(CN(Cc2ccc(Cl)cc2)Cc2ccc([N+](=O)[O-])s2)C1 (stereo not drawn) [SR9011] | – | – | 82.4
10 | O=C(O)c1ccc2c3c1cccc3c(=O)n1c3ccccc3nc21 [STO609] | 1.4 | 1.0 | 0.000816
11 | Cc1[nH]c(/C=C2\C(=O)Nc3ccc(S(=O)(=O)N(C)c4cccc(Cl)c4)cc32)c(C)c1C(=O)N1CCN(C)CC1 [SU11274] | 11.9 | 1.0 | 0.000745
12 | Cn1cnc2c(F)c(Nc3ccc(Br)cc3Cl)c(C(=O)NOCCO)cc21 [Selumetinib (AZD6244)] | 6.5 | 1.5 | 1.0
13 | CCN(CC)CCNC(=O)c1c(C)[nH]c(/C=C2\C(=O)Nc3ccc(F)cc32)c1C [Sunitinib] | – | 1.0 | –
14 | Nc1nc(N)c2nc(-c3cccc(O)c3)c(-c3cccc(O)c3)nc2n1 [TG100-115] | 1.8 | 1.0 | 1.0
15 | Cc1nc(-c2cn3c(n2)-c2ccc(-c4cnn(C(C)(C)C(N)=O)c4)cc2OCC3)n(C(C)C)n1 [Taselisib (GDC-0032)] | – | 2.8 | –
16 | COc1cc2nccc(Oc3ccc(NC(=O)Nc4cc(C)on4)c(Cl)c3)c2cc1OC [Tivozanib (AV-951)] | 15.6 | 1.0 | 89.9
